Measured values: patent US8097440B1, “Engineered microorganisms capable of producing target compounds under anaerobic conditions” (Gevo, Inc., priority 2008, dated 2012)
Residue numbers refer to the chain shown, from its start.

What was measured:
[1] = target: T1, E. coli KARI Ec_IlvC variant Ec_IlvC^S78D-his6 (S78D), SEQ ID NO: 17 (Escherichia coli, UniProt P05793, S78D); assay: KARI cuvette assay, purified Ec_IlvC^S78D-his6; format: biochemical; conditions: relative to Ec_IlvC^his6 with NADPH
T1 sequence (P05793 with tags, fused parts or gaps S78D): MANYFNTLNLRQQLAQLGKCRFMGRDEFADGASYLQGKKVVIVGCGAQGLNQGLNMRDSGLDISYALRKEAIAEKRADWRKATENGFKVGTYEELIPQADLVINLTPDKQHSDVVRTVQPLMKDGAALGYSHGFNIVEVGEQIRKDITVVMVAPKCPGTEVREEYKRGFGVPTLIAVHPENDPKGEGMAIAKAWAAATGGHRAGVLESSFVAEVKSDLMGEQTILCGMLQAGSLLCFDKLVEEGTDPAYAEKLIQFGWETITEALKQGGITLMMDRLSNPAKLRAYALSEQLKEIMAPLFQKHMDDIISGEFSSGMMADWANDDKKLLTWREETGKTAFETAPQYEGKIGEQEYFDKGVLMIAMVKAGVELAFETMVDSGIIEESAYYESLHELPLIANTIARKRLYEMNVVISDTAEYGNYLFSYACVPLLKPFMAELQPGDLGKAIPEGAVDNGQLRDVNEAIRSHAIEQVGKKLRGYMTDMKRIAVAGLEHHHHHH
Protocol: (§1) KARI cuvette assay: KARI activity was assayed kinetically by monitoring the decrease in NAD(P)H concentration by measuring the absorbance at 340 nm. A reaction buffer was prepared containing 250 mM potassium phosphate pH 7, 1 mM DTT and 10 mM MgCl2. Cell pellets were resuspended (0.25 g wet weight/mL buffer) in 250 mM potassium phosphate (KPi) buffer containing 1 mM DTT and 10 mM MgCl2. The resuspended cells were lysed by sonication for 1 min with a 50% duty cycle and pelleted at 11000×g and 4° C. for 15 min. A reaction mixture consisting of 910 μl reaction buffer, 50 μl acetolactate, and 20 μl lysate was prepared in a cuvette. The reaction was initiated by addition of 20 μL of 10 mM NAD(P)H. A substrate free control was conducted using reaction buffer without the addition of acetolactate.
Purification of KARI: Cell pellets used for purification were resuspended in purification buffer A (20 mM Tris, 20 mM imidazol, 100 mM NaCl, 10 mM MgCl2, pH 7.4). KARI was purified by IMAC (Immobilized metal affinity chromatography) over a 1 ml Histrap High Performance (histrap HP) column pre-charged with Nickel (GE Healthcare) using an Akta FPLC system (GE Healthcare). […]

[2] = target: T2, E. coli KARI Ec_IlvC variant Ec_IlvC^2H10-his6 (A71S, R76D, S78D, Q110A), SEQ ID NO: 31 (Escherichia coli, UniProt P05793, A71S/Q110A/R76D/S78D); assay: KARI assay, purified Ec_IlvC^2H10-his6; format: biochemical; conditions: acetolactate as substrate
T2 construct: T37 values cited for the gene on pGV1976
T2 sequence (P05793 with tags, fused parts or gaps A71S/R76D/S78D/Q110A): T1 sequence (P05793 with tags, fused parts or gaps S78D) with A71S, R76D, Q110A
Protocol: as §1, with “The reaction was initiated by addition of 20 μL of 10 mM NAD(P)H. A substrate free control was conducted using reaction buffer without the addition of acetolactate.” left out
Only 20% of the enzymes of the recombination library were active on NADH. After screening 1,000 clones using the NADH depletion assay at 340 nm, 26 KARI variants were selected for a rescreen by the high-throughput assay described in Example 14 and eight thereof were expressed in 25 ml LBamp medium in shake flasks according to the protocol for cell growth and protein expression in shake flasks as described in Example 14, purified according to the protocol for purification of KARI enzymes as described in Example 14, and NAD(P)H depletion at 340 nm was measured again. […] The KM values of variants Ec_llvC^2H10-his6 and Ec_llvC^6E6-his6 were measured and the catalytic efficiencies were calculated.

NC(=O)C1=CN([C@@H]2O[C@H](COP(=O)(O)OP(=O)(O)OC[C@H]3O[C@@H](n4cnc5c(N)ncnc54)[C@H](O)[C@@H]3O)[C@@H](O)[C@H]2O)C=CC1 [NADH, nicotinamide adenine dinucleotide] was tested, and the “(kcat/KM with NADH)/(kcat/KM of Ec_IlvC^his6 with NADPH)” value [1] was 32% and the kcat/KM [2] was 60,322 M^−1 * s^−1.
